The SangsterLogP compilation

Row | SMILES | logP
1 | C=C(C)C1(CCC(C)C)C(=O)NC(=O)NC1=O | 1.95
2 | CC=C(CCCC)C1(CCC)C(=O)NC(=O)NC1=O | 2.65
3 | C=C(C)C1(CCC)C(=O)NC(=O)NC1=O | 1.15
4 | C/C=C(\CC)C1(CC)C(=O)NC(=O)NC1=O | 1.65
5 | C=CCC1(/C(C)=C/C)C(=O)NC(=O)NC1=O | 2.15
6 | CC=C(CCCC)C1(C)C(=O)NC(=O)NC1=O | 2.15
7 | C/C=C(/C)C1(CC)C(=O)NC(=O)NC1=O | 1.15
8 | C=C(C)C1(CCCC)C(=O)NC(=O)NC1=O | 1.65
9 | C/C=C(\CC)C1(CCC)C(=O)NC(=O)NC1=O | 2.15
10 | CCCC=C(CC)C1(CC)C(=O)NC(=O)NC1=O | 2.65
11 | CC/C=C(\C)C1(C)C(=O)NC(=O)NC1=O | 1.15
12 | CC=C(CCC)C1(CC)C(=O)NC(=O)NC1=O | 2.15
13 | C/C=C(\C)C1(C)C(=O)NC(=O)NC1=O | 0.65
14 | CC/C=C(/C)C1(CCC)C(=O)NC(=O)NC1=O | 2.15
15 | CC=C(C(C)C)C1(C)C(=O)NC(=O)NC1=O | 1.45
16 | C=C(C)C1(CCCCC)C(=O)NC(=O)NC1=O | 2.15
17 | C=C(C)C1(CC(C)C)C(=O)NC(=O)NC1=O | 1.45
18 | C/C=C(\CC)C1(C)C(=O)NC(=O)NC1=O | 1.15
19 | C=C(C)C1(C)C(=O)NC(=O)NC1=O | 0.15
20 | C/C=C(\CC)C1(C(C)C)C(=O)NC(=O)NC1=O | 1.95
21 | C/C=C(\C)C1(CCC)C(=O)NC(=O)NC1=O | 1.65
22 | CC/C=C(\C)C1(C(C)C)C(=O)NC(=O)NC1=O | 1.95
23 | CC=C(CCC)C1(C)C(=O)NC(=O)NC1=O | 1.65
24 | CC/C=C(\C)C1(CC)C(=O)NC(=O)NC1=O | 1.65
25 | C=C(C)C1(CC)C(=O)NC(=O)NC1=O | 0.65
